The text below walks through data of patent publication US20120202794A1 (priority 2011, published 2012).

Where only a bound is given, the exact number is not on record here.

Series [1] is described as follows: Cell cytotoxicity assay (MTS), CC90 as reported in Table 1, cell line not stated. In kind it is cell-based. Conditions: human, cell line not given. On the procedure: Cell cytotoxicity assays. Each compound (serially diluted from 100 μM) was added to Huh7 (2×10^3 cells/well), HepG2 (2×10^3 cells/well), BxPC3 (2×10^3 cells/well), or CEM (5×10^3 cells/well) cells and allowed to incubate for 8 days at 37° C. A medium only control was used to determine the minimum absorbance value […]. At the end of the growth period, MTS dye from the CellTiter 96 Aqueous One Solution Cell Proliferation Assay kit (Promega) was added to each well and the plate was incubated for an additional 2 hours. The absorbance at 490 nm was read with a Victor3 plate reader (Perkin Elmer) using the medium only control wells as blanks. The 90% inhibition value (CC90) was determined by comparing the absorbance in wells containing cells and test compound to untreated cell control wells.

Another series has as its system HCV Replicon 1b. As to the kind of experiment: HCV inhibition assay, HCV replicon 1b (Clone A or ET-lunet cells; RT-PCR or luciferase reporter). In kind it is cell-based. Conditions: Hepatitis C virus, 96 h, HCV replicon 1b; 4 days incubation; read-out: Replicon 1b potency EC90. How it is done: HCV inhibition assay. Clone A or ET-lunet cells were seeded at a density of 1500 or 3000 cells per well in a 96-well plate, respectively. Test compounds serially diluted in culture medium without G418 were added to cells so that the final DMSO concentration was 0.5%. Plates were incubated at 37° C. in a 5% CO2 atmosphere for 4 days. Inhibition of HCV RNA replication was determined by real time PCR (RT-PCR) or by measuring the levels of luminescence expressed via the luciferase reporter gene encoded within the ET replicon. Briefly, for the RT-PCR assay, total RNA was extracted using the RNeasy-96 kit as recommended by the manufacturer (Qiagen, Valencia, Calif.), reversed transcribed into cDNA, and amplified using primer and probe mix for HCV 5′-NTR RNA and human ribosomal RNA (rRNA) in a one-step RT-PCR reaction as described previously (50). A relative quantification method was used to determine the extent of inhibition. The threshold cycle (Ct) of rRNA was subtracted from the Ct of HCV RNA (ΔCt). The average ΔCt of the DMSO cell controls was then subtracted from the ΔCt of the compound treated sample (ΔΔCt). Percent inhibition was determined by using the following equation: %=(1−(2^−ΔΔC^t))×100. For the luciferase-based replicon assay, luminescence was measured by using a Victor3 plate reader (Perkin-Elmer, Boston, Mass.) following the addition of Bright-Glo reagent as recommended by the manufacturer (Promega, Madison, Wis.). Percent inhibition of HCV replication was determined by comparing the change in luminescence of the drug treated wells versus the DMSO cell controls. EC50 and EC90 values, the concentrations at which 50% and 90% inhibition were achieved, were determined using the GraphPad Prism software (San Diego, Calif.).
A general note: In antiviral work, replicon cells carry a viral genome segment that copies itself.

For the compound `CSCCC1C(=O)N[C@@H](c2ccccc2)CN1C(=O)c1cc(-c2ccc(F)cc2)on1` (stereo in doubt) [Compound 458, (3R,6S)-4-(5-(4-fluorophenyl)isoxazole-3-carbonyl)-3-((methylthio)ethyl)-6-phenylpiperazin-2-one], the CC90 at 8 days in series [1] (MTS assay, 8 days incubation) was above 10 µM. The 90% effect concentration (EC90) (usually the concentration needed for an effect of 90%) with HCV Replicon 1b is 2.07 µM.

As to `CC(C)C[C@H]1C(=O)NC(c2ccccc2)N1C(=O)[C@H]1C[C@@H]1c1ccccc1` (stereo in doubt) [Compound 531, (2R,5S)-5-isobutyl-2-phenyl-1-((1S,2S)-2-phenylcyclopropanecarbonyl)imidazolidin-4-one], the CC90 at 8 days in series [1] (MTS assay, 8 days incubation) was above 10 µM. Further, the EC90 with HCV Replicon 1b was above 10 µM.

The compound `CC(C)C[C@H]1C(=O)NC(c2ccccc2)N1C(=O)[C@H]1C[C@@H]1c1ccc(F)cc1` (stereo in doubt) [Compound 533, (2R,5S)-1-((1S,2S)-2-(4-fluorophenyl)cyclopropane-carbonyl)-5-isobutyl-2-phenyl-imidazolidin-4-one] displayed a CC90 at 8 days in series [1] (MTS assay, 8 days incubation) above 10 µM. Further, the EC90 with HCV Replicon 1b is above 10 µM.

In series [1], `CC(C)C[C@H]1CN(C(=O)[C@@H]2C[C@H]2c2ccccc2)[C@@H](CC(C)C)C(=O)N1` [Compound 70] showed a CC90 at 8 days above 10 µM. In the series on HCV Replicon 1b, the 90% effect concentration (EC90) was determined as 0.8 µM.

`CC(C)C[C@H]1CN(C(=O)/C=C/c2ccc(Cl)cc2)[C@@H](CC(C)C)C(=O)N1` [Compound 72] showed a CC90 at 8 days in series [1] above 10 µM. The EC90 in the series with HCV Replicon 1b is 2.5 µM.

Take `CC(C)C[C@H]1CN(C(=O)/C=C/c2ccc(C(F)(F)F)cc2)[C@@H](CC(C)C)C(=O)N1` [Compound 73]: the CC90 at 8 days in series [1] was above 10 µM. For the same compound, in the series with HCV Replicon 1b, the EC90 is 3.34 µM.

Compound `CC(C)C[C@H]1CN(C(=O)/C=C/c2cccnc2)[C@@H](CC(C)C)C(=O)N1` [Compound 74] yielded a CC90 at 8 days in series [1] above 10 µM. In addition, in the series on HCV Replicon 1b, the 90% effect concentration (EC90) was above 10 µM.

Compound `C/C(=C\C(=O)N1C[C@H](CC(C)C)NC(=O)[C@@H]1CC(C)C)c1ccccc1` [Compound 75] gave a CC90 at 8 days in series [1] above 10 µM. Further, in the series with HCV Replicon 1b, the EC90 is above 10 µM.

As to `CC(C)C[C@H]1CN(C(=O)c2cc3ccccc3o2)[C@@H](CC(C)C)C(=O)N1` [Compound 76], the CC90 at 8 days in series [1] is above 10 µM. Further, in the series on HCV Replicon 1b, the concentration for an effect of 90% (EC90) amounted to 9.18 µM.

In the case of `CC(C)C[C@H]1CN(C(=O)/C=C/c2ccccc2)[C@@H](CC(C)C)C(=O)N1` [Compound 77], in series [1], the CC90 at 8 days is above 10 µM. Also, in the series with HCV Replicon 1b, the concentration for an effect of 90% (EC90) worked out at 3.24 µM.

As for `C/C(=C\c1ccccc1)C(=O)N1C[C@H](CC(C)C)NC(=O)[C@@H]1CC(C)C` [Compound 78], in series [1], the CC90 at 8 days is above 10 µM. Moreover, the concentration for an effect of 90% (EC90) in the series with HCV Replicon 1b turned out to be 9.93 µM.

In series [1], `Cc1ccc(/C=C/C(=O)N2C[C@H](CC(C)C)NC(=O)[C@@H]2CC(C)C)cc1` [Compound 79] gave a CC90 at 8 days above 10 µM. In the series with HCV Replicon 1b, the EC90 worked out at 5.29 µM.

`CC(C)C[C@H]1CN(C(=O)/C=C/c2ccc(F)cc2)[C@@H](CC(C)C)C(=O)N1` [Compound 80] returned a CC90 at 8 days in series [1] above 10 µM. Further, in the series with HCV Replicon 1b, the concentration for an effect of 90% (EC90) was 2.49 µM.

`CC(C)C[C@H]1CN(C(=O)/C=C/c2ccc(Cl)c(Cl)c2)[C@@H](CC(C)C)C(=O)N1` [Compound 81] gave a CC90 at 8 days in series [1] above 10 µM. Besides, in the series with HCV Replicon 1b, the EC90 was found to be 7.31 µM.

For the compound `CC(C)C[C@H]1CN(C(=O)/C=C/c2ccc(F)c(F)c2)[C@@H](CC(C)C)C(=O)N1` [Compound 82], in series [1], the CC90 at 8 days is above 10 µM. Further, the 90% effect concentration (EC90) with HCV Replicon 1b amounted to 1.22 µM.

Regarding `CC(C)C[C@H]1CN(C(=O)/C=C/c2cccc(F)c2)[C@@H](CC(C)C)C(=O)N1` [Compound 83], the CC90 at 8 days in series [1] is above 10 µM. For the same compound, the 90% effect concentration (EC90) in the series on HCV Replicon 1b turned out to be 2.91 µM.

In series [1], `CC(C)C[C@H]1CN(C(=O)/C=C/c2cc(F)c(F)c(F)c2)[C@@H](CC(C)C)C(=O)N1` [Compound 84] had a CC90 at 8 days above 10 µM. In the series with HCV Replicon 1b, the EC90 was determined as 2.64 µM.

For `CC(C)C[C@H]1CN(C(=O)/C=C/c2ccc(F)c(Cl)c2)[C@@H](CC(C)C)C(=O)N1` [Compound 85], the CC90 at 8 days in series [1] was above 10 µM. Besides, in the series on HCV Replicon 1b, the EC90 came out at 8.65 µM.

In the case of `CC(C)C[C@H]1CN(C(=O)/C=C/c2ccc(Cl)cc2F)[C@@H](CC(C)C)C(=O)N1` [Compound 86], the CC90 at 8 days in series [1] is above 10 µM. In addition, the EC90 with HCV Replicon 1b was determined as 0.59 µM.

In series [1], `CC(C)C[C@H]1CN(C(=O)/C=C/c2ccc(F)cc2F)[C@@H](CC(C)C)C(=O)N1` [Compound 87] registered a CC90 at 8 days above 10 µM. For the same compound, the concentration for an effect of 90% (EC90) with HCV Replicon 1b came out at 0.57 µM.

As for `Cc1cccc(C)c1NC(=O)CN1C[C@H](CC(C)C)NC(=O)[C@@H]1CC(C)C` [Compound 88], the CC90 at 8 days in series [1] was above 10 µM. The 90% effect concentration (EC90) in the series on HCV Replicon 1b is above 10 µM.

In turn, `CC(C)C[C@H]1CN(C(=O)c2ccc(Oc3ccccc3)cc2)[C@@H](CC(C)C)C(=O)N1` [Compound 89] gave a CC90 at 8 days in series [1] above 10 µM. The concentration for an effect of 90% (EC90) with HCV Replicon 1b stood at 6.88 µM.

`CC(C)C[C@H]1CN(C(=O)/C=C/c2ccc3c(c2)OCO3)[C@@H](CC(C)C)C(=O)N1` [Compound 90]: the CC90 at 8 days in series [1] was above 10 µM. Moreover, in the series with HCV Replicon 1b, the EC90 was 7.72 µM.

On to `CC(C)C[C@H]1CN(C(=O)/C=C/c2ccc([N+](=O)[O-])cc2)[C@@H](CC(C)C)C(=O)N1` [Compound 91], for which the CC90 at 8 days in series [1] is above 10 µM. The concentration for an effect of 90% (EC90) in the series on HCV Replicon 1b was above 10 µM.

Compound `CC(C)C[C@H]1CN(C(=O)/C=C/c2ccc(S(C)(=O)=O)cc2)[C@@H](CC(C)C)C(=O)N1` [Compound 92] showed a CC90 at 8 days in series [1] above 10 µM. Also, the EC90 in the series on HCV Replicon 1b is above 10 µM.

As for `CC(C)C[C@H]1CN(C(=O)/C=C/c2ccc(C(F)(F)F)cc2F)[C@@H](CC(C)C)C(=O)N1` [Compound 93], the CC90 at 8 days in series [1] was above 10 µM. For the same compound, the 90% effect concentration (EC90) with HCV Replicon 1b is 9.62 µM.

The compound `CC(C)C[C@H]1CN(C(=O)/C=C/c2ccc(-c3ccccc3)cc2)[C@@H](CC(C)C)C(=O)N1` [Compound 94] had a CC90 at 8 days in series [1] above 10 µM. Further, the EC90 with HCV Replicon 1b turned out to be 8.37 µM.

Turning to `CC(C)C[C@H]1CN(C(=O)/C=C/c2cc(F)cc(F)c2)[C@@H](CC(C)C)C(=O)N1` [Compound 95], in series [1], the CC90 at 8 days is above 10 µM. Also, the EC90 in the series on HCV Replicon 1b stood at 9.31 µM.

As for `CCC[C@H]1CN(C(=O)/C=C/c2ccc(F)cc2F)[C@@H](CC(C)C)C(=O)N1` [Compound 96], the CC90 at 8 days in series [1] was above 10 µM. The EC90 in the series with HCV Replicon 1b was 1.11 µM.

`CC(C)C[C@H]1CN(C(=O)c2ccc(-c3ccccc3)o2)[C@@H](CC(C)C)C(=O)N1` [Compound 97]: the CC90 at 8 days in series [1] is above 10 µM. Also, the EC90 with HCV Replicon 1b was determined as 7.28 µM.

In the case of `CC(C)C[C@H]1CN(C(=O)c2csc(-c3ccccc3)n2)[C@@H](CC(C)C)C(=O)N1` [Compound 98], the CC90 at 8 days in series [1] is above 10 µM. The EC90 in the series on HCV Replicon 1b was 7.92 µM.

In turn, `CC(C)C[C@H]1CN(C(=O)c2coc(-c3ccccc3)n2)[C@@H](CC(C)C)C(=O)N1` [Compound 99] registered a CC90 at 8 days in series [1] above 10 µM. Besides, the EC90 with HCV Replicon 1b was above 10 µM.

`CC(C)C[C@H]1CN(C(=O)c2cc(-c3ccccc3)[nH]n2)[C@@H](CC(C)C)C(=O)N1` [Compound 100] had a CC90 at 8 days in series [1] above 10 µM. The EC90 in the series on HCV Replicon 1b was above 10 µM.

For `CC(C)C[C@H]1CN(C(=O)c2c[nH]c(-c3ccccc3)n2)[C@@H](CC(C)C)C(=O)N1` [Compound 101], the CC90 at 8 days in series [1] was above 10 µM. Further, the 90% effect concentration (EC90) in the series with HCV Replicon 1b was above 10 µM.

`CC(C)C[C@H]1C(=O)N[C@@H](C2CCCC2)CN1C(=O)[C@@H]1C[C@H]1c1ccc(Br)cc1` [Compound 332, (3S,6S)-6-cyclopentyl-4-((1R,2R)-2-(4-bromophenyl)cyclopropanecarbonyl)-3-isobutylpiperazin-2-one]: the concentration for an effect of 90% (EC90) in the series with HCV Replicon 1b is 1.31 µM.
